According to patent US8431596B2 (Cancer Research Technology Limited, priority 2007, dated 2013):
pIC50: −log10 of the molar value.

Target: T1, AXL (human catalytic domain) (Homo sapiens, UniProt P30530)
T1 construct: purchased Upstate Ltd. 14-512
T1 sequence (P30530 473-894): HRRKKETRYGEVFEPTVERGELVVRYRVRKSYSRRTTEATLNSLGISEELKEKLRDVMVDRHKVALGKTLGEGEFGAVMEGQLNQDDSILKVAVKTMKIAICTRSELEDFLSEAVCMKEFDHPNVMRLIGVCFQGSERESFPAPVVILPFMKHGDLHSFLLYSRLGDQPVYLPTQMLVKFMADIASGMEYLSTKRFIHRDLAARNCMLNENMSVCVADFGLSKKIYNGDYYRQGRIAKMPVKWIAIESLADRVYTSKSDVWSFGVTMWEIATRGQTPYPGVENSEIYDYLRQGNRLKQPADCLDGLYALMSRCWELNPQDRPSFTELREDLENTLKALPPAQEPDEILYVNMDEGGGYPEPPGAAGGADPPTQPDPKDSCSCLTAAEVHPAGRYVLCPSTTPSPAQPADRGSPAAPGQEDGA
Experiment: AXL (human catalytic domain) Enzyme Activity Assay (IMAP fluorescence polarisation)
Assay type: biochemical
Procedure: Biological Methods AXL (human catalytic domain) Enzyme Activity Assay Reagents
Kinase Assay Reaction Buffer: This consisted of 20 mM HEPES pH 7.0, 10 mM MgCl2, 1 mM DTT, […], 0.01% Triton X100 (v/v), and 0.01% BSA (w/v). All buffer components were purchased from Sigma-Aldrich at reagent grade or higher.
Kinase: Recombinant AXL isoform 1 (aa473-894 corresponding to Genbank Accession Number NP 068713) at 2 mg/mL (20.8 μM) was purchased from Upstate Ltd. (Product code 14-512, lot #28164U). The enzyme was stored at −80° C. and a working stock was prepared to a concentration of 30 nM by diluting 20.8 μM stock 1:693 in cold (4° C.) 1× Reaction Buffer. Final enzyme concentration in the assay was 15 nM.
Substrate: Fluorescein labelled CSK-tide 5FAM-[…]-NH2 was obtained from Molecular Devices (Product code R7270) and used at a working concentration of 200 nM by diluting the 100 μM stock 1:500 in 1× Reaction Buffer in a mix with the enzyme. A negative control (lacking enzyme) was prepared at the same concentrations. Final substrate concentration in the assay was 100 nM.
ATP: Supplied by Sigma (product code A-7699). A 100 mM ATP stock was prepared in […] and used at a working concentration of 375 μM by diluting the 100 mM stock 1:266.6 in Reaction Buffer. Final ATP concentration in the assay was 150 μM; this concentration represents the KM.ATP for this enzyme calculated in this assay.
IMAP Reagents: IMAP screening express kit was obtained from Molecular Devices (product code R8127). The binding reagent was gently re-suspended before diluting by 1:1000 in buffer (Binding Buffer is supplied as a 5× stock and so was diluted with water prior to use—this assay used 40% buffer A and 60% buffer B) and then vortexed before addition to wells. The binding reagent was used at a final dilution of 1:1333.
1 μL samples of test compounds in 10% DMSO/water were added to “test” wells by dry-spotting using a Matrix Platemate Plus. 5 μL Kinase/Substrate in Reaction Buffer were added to columns 1-22 of a Corning black low binding 384 well #6754 (90 μL volume) microplate to give 12 nM and 100 nM reaction concentration respectively. 5 μL substrate in Reaction Buffer was added to columns 23 and 24 to give 100 nM reaction concentration. 4 μL ATP in Reaction Buffer was added to all wells to give 150 μM reaction concentration. The reaction mixture was then incubated at room temperature for 60 minutes. The incubation period was followed by the addition of 20 μL IMAP Binding Reagent in Binding Buffer to all wells. The IMAP reaction detection was further incubated at room temperature overnight. The FP on a Tecan Ultra Plate reader was recorded as a single read at Ex485 Em535.
Percentage inhibition was calculated based on activity of the test sample minus the average values in the blank wells relative to the average values measured in control wells minus the average values in the blank wells.
IC50 values were calculated from 10 point dose sigmoid ‘dose-response’ curves using XIfit software (IDBS Inc, USA). Data were fitted to a 4 parameter logistic model/sigmoidal dose response defined by the following equation:
[formula] where: • A=fit minimum (locked to 0); • B=fit maximum (locked to 100); • C=fit midpoint (pre-fit to 1); and • D=slope at linear portion of curve, hillslope (pre-fit to 0.1).
The value for C represents the IC50 of the test compound.

[1] = first data set, recombinant AXL isoform 1 aa473-894, 150 μM ATP
[2] = further data set (WW-001 through WW-169, XX-001 through XX-469, YY-001 through YY-016, ZZ-001 through ZZ-003), 150 μM ATP

O=C(Nc1nc2cccc(-c3ccc(-n4cccn4)cc3)n2n1)C1CC1 [WW-109]
pIC50 [1]: 5.00 to 6.00
pIC50 [2]: 5.00 to 6.00

CC(C)(C)OC(=O)Nc1ccc(-c2cccc3nc(NC(=O)C4CC4)nn23)cc1 [WW-110]
pIC50 [1]: 5.00 to 6.00
pIC50 [2]: 5.00 to 6.00

CC(Nc1cccc2nc(NC(=O)C3CC3)nn12)c1ccccc1 (stereo not drawn) [WW-113]
pIC50 [1]: 5.00 to 6.00
pIC50 [2]: 5.00 to 6.00

CN(C(=O)OC(C)(C)C)c1ccc(-c2cccc3nc(NC(=O)C4CC4)nn23)cc1 [WW-119, {4-[2-(cyclopropanecarbonyl-amino)-[1,2,4]triazolo[1,5-a]pyridin-5-yl]-phenyl}-methyl-carbamic acid tert-butyl ester]
pIC50 [1]: 5.00 to 6.00
pIC50 [2]: 5.00 to 6.00

CNc1ccc(-c2cccc3nc(NC(=O)C4CC4)nn23)cc1 [WW-120, Cyclopropanecarboxylic acid [5-(4-methylamino-phenyl)-[1,2,4]triazolo[1,5-a]pyridin-2-yl]-amide]
pIC50 [1]: 5.00 to 6.00
pIC50 [2]: 5.00 to 6.00

O=C(Nc1nc2cccc(-c3ccc(OCC4CC4)cc3)n2n1)C1CC1 [WW-121]
pIC50 [1]: 5.00 to 6.00
pIC50 [2]: 5.00 to 6.00

C#CCOc1ccc(-c2cccc3nc(NC(=O)C4CC4)nn23)cc1 [WW-122]
pIC50 [1]: 5.00 to 6.00
pIC50 [2]: 5.00 to 6.00

COc1cccc(COc2ccc(-c3cccc4nc(NC(=O)C5CC5)nn34)cc2)c1 [WW-123, Cyclopropanecarboxylic acid {5-[4-(3-methoxy-benzyloxy)-phenyl]-[1,2,4]triazolo[1,5-a]pyridin-2-yl}-amide]
pIC50 [1]: 5.00 to 6.00
pIC50 [2]: 5.00 to 6.00

CCCn1cc(-c2cccc3nc(NC(=O)C4CC4)nn23)cn1 [WW-124, Cyclopropanecarboxylic acid [5-(1-propyl-1H-pyrazol-4-yl)-[1,2,4]triazolo[1,5-a]pyridin-2-yl]-amide]
pIC50 [1]: 5.00 to 6.00
pIC50 [2]: 5.00 to 6.00

COc1ccc(-c2cccc3nc(NC(=O)C4CC4(F)F)nn23)cc1 (stereo not drawn) [WW-125]
pIC50 [1]: 5.00 to 6.00
pIC50 [2]: 5.00 to 6.00

COc1ccc(Nc2cccc3nc(NC(=O)C4CC4)nn23)cc1 [WW-127, Cyclopropanecarboxylic acid [5-(4-methoxy-phenylamino)-[1,2,4]triazolo[1,5-a]pyridin-2-yl]-amide]
pIC50 [1]: 5.00 to 6.00
pIC50 [2]: 5.00 to 6.00

O=C(Nc1nc2cccc(Nc3ccccc3Cl)n2n1)C1CC1 [WW-128]
pIC50 [1]: 5.00 to 6.00
pIC50 [2]: 5.00 to 6.00

O=C(Nc1nc2cccc(Nc3cccc(Cl)c3)n2n1)C1CC1 [WW-129]
pIC50 [1]: 5.00 to 6.00
pIC50 [2]: 5.00 to 6.00

O=C(Nc1nc2cccc(-c3ccc4occc4c3)n2n1)C1CC1 [WW-133]
pIC50 [1]: > 6.00
pIC50 [2]: 6.00 to 7.00

CC(C)CCn1cc(-c2cccc3nc(NC(=O)C4CC4)nn23)cn1 [WW-135]
pIC50 [1]: 5.00 to 6.00
pIC50 [2]: 5.00 to 6.00

CSc1ccc(-c2cccc3nc(NC(=O)C4CC4)nn23)cc1 [WW-136]
pIC50 [1]: 5.00 to 6.00
pIC50 [2]: 5.00 to 6.00

O=C(Nc1nc2cccc(-c3cccc(-n4cccn4)c3)n2n1)C1CC1 [WW-137]
pIC50 [1]: 5.00 to 6.00
pIC50 [2]: 5.00 to 6.00

CC(C)(C)c1ccc(-c2cccc3nc(NC(=O)C4CC4)nn23)cc1 [WW-139]
pIC50 [1]: 5.00 to 6.00
pIC50 [2]: 5.00 to 6.00

O=C(Nc1nc2cccc(-c3ccc4c(c3)OCCCO4)n2n1)C1CC1 [WW-144]
pIC50 [1]: 5.00 to 6.00
pIC50 [2]: 5.00 to 6.00

CCS(=O)(=O)n1cc(-c2cccc3nc(NC(=O)C4CC4)nn23)cn1 [WW-147, Cyclopropanecarboxylic acid [5-(1-ethanesulfonyl-1H-pyrazol-4-yl)-[1,2,4]triazolo[1,5-a]pyridin-2-yl]-amide]
pIC50 [1]: 5.00 to 6.00
pIC50 [2]: 5.00 to 6.00

Cc1c(-c2cccc3nc(NC(=O)C4CC4)nn23)cnn1-c1ccccc1 [WW-148]
pIC50 [1]: 5.00 to 6.00
pIC50 [2]: 5.00 to 6.00

O=C(Nc1nc2cccc(-c3cc[nH]c3)n2n1)C1CC1 [WW-149]
pIC50 [1]: 5.00 to 6.00
pIC50 [2]: 5.00 to 6.00

CC(C)Oc1ccc(-c2cccc3nc(NC(=O)C4CC4)nn23)cc1 [WW-150]
pIC50 [1]: 5.00 to 6.00
pIC50 [2]: 5.00 to 6.00

O=C(Nc1nc2cccc(-c3ccc(N4CCNCC4)cc3)n2n1)C1CC1 [WW-151, Cyclopropanecarboxylic acid [5-(4-piperazin-1-yl-phenyl)-[1,2,4]triazolo[1,5-a]pyridin-2-yl]-amide]
pIC50 [1]: 5.00 to 6.00
pIC50 [2]: 5.00 to 6.00

CC(C)Oc1cccc(-c2cccc3nc(NC(=O)C4CC4)nn23)c1 [WW-152]
pIC50 [1]: 5.00 to 6.00
pIC50 [2]: 5.00 to 6.00

CCN(CC)CCNc1ccc(-c2cccc3nc(NC(=O)C4CC4)nn23)cc1 [WW-153, Cyclopropanecarboxylic acid {5-[4-(2-diethylamino-ethylamino)-phenyl]-[1,2,4]triazolo[1,5-a]pyridin-2-yl}-amide]
pIC50 [1]: 5.00 to 6.00
pIC50 [2]: 5.00 to 6.00

NCC(=O)Nc1ccc(-c2cccc3nc(NC(=O)C4CC4)nn23)cc1 [WW-155, Cyclopropanecarboxylic acid {5-[4-(2-amino-acetylamino)-phenyl]-[1,2,4]triazolo[1,5-a]pyridin-2-yl}-amide]
pIC50 [1]: 5.00 to 6.00
pIC50 [2]: 5.00 to 6.00

O=C(Nc1nc2cccc(-c3ccc(NS(=O)(=O)c4ccccc4)cc3)n2n1)C1CC1 [WW-156]
pIC50 [1]: 5.00 to 6.00
pIC50 [2]: 5.00 to 6.00

NCCCNc1ccc(-c2cccc3nc(NC(=O)C4CC4)nn23)cc1 [WW-157]
pIC50 [1]: 5.00 to 6.00
pIC50 [2]: 5.00 to 6.00

NCCNc1ccc(-c2cccc3nc(NC(=O)C4CC4)nn23)cc1 [WW-158, Cyclopropanecarboxylic acid {5-[4-(2-amino-ethylamino)-phenyl]-[1,2,4]triazolo[1,5-a]pyridin-2-yl}-amide]
pIC50 [1]: 5.00 to 6.00
pIC50 [2]: 5.00 to 6.00

O=C(Nc1nc2cccc(-c3ccc4c(c3)CCO4)n2n1)C1CC1 [WW-159]
pIC50 [1]: > 6.00
pIC50 [2]: 6.00 to 7.00

COc1cccc(Nc2cccc3nc(NC(=O)C4CC4)nn23)c1 [WW-160]
pIC50 [1]: 5.00 to 6.00
pIC50 [2]: 5.00 to 6.00

COc1cc(Nc2cccc3nc(NC(=O)C4CC4)nn23)cc(OC)c1OC [WW-161]
pIC50 [1]: 5.00 to 6.00
pIC50 [2]: 5.00 to 6.00

O=C(Nc1nc2cccc(-c3ccc(Oc4ccccc4)cc3)n2n1)C1CC1 [WW-162]
pIC50 [1]: 5.00 to 6.00
pIC50 [2]: 5.00 to 6.00

COc1ccc(CNc2cccc3nc(NC(=O)C4CC4)nn23)cc1 [WW-167]
pIC50 [1]: 5.00 to 6.00
pIC50 [2]: 5.00 to 6.00

CN1CCN(CCC(=O)Nc2nc3cccc(-c4ccc5c(c4)OCCO5)n3n2)CC1 [WW-169]
pIC50 [2]: 5.00 to 6.00

COc1cc(Nc2nc3cccc(-c4ccc5c(c4)OCCO5)n3n2)ccc1OCCN1CCCC1 [XX-001]
pIC50 [1]: > 6.00
pIC50 [2]: ≥ 7.00

CN(C)CCNC(=O)c1cccc(Nc2nc3cccc(-c4ccc5c(c4)OCO5)n3n2)c1 [XX-002]
pIC50 [1]: > 6.00
pIC50 [2]: 6.00 to 7.00

COc1ccc(-c2cccc3nc(NCC4CC4)nn23)cc1 [XX-003, Cyclopropylmethyl-[5-(4-methoxy-phenyl)-[1,2,4]triazolo[1,5-a]pyridin-2-yl]-amine]
pIC50 [1]: 5.00 to 6.00
pIC50 [2]: 6.00 to 7.00

COc1ccc(-c2cccc3nc(Nc4ccc(OCCN5CCCC5)cc4)nn23)cc1 [XX-004]
pIC50 [1]: > 6.00
pIC50 [2]: 5.00 to 6.00

COc1ccc(-c2cccc3nc(Nc4ccc(OCCN5CCOCC5)cc4)nn23)cc1 [XX-005]
pIC50 [1]: > 6.00
pIC50 [2]: ≥ 7.00
